The values below come from patent US12691104B2, “Compositions containing nicotinamide and vitamin B6 and methods of using such compositions for treating sarcopenia and frailty” (SOCIETE DES PRODUITS NESTLE S.A., priority 2020, dated 2026).

The subject of this assay is Human primary myoblasts. Description: Myogenic amplification and commitment of muscle stem cells (Pax7/MyoD staining, image quantification). The assay is classed as cell-based. Conditions: donors 1 and 2 pooled, dose response, 96 hours, control DMSO 1%; for proportion of MyoD+ cells, fold change compared to the control condition: FIG. 1B/2B. Here is the method: Human Skeletal Muscle Myoblasts were purchased from Lonza (https://bioscience.lonza.com). These cells were isolated from the upper arm or leg muscle tissue of normal donors and used after the second passage. Several donors were tested to ensure cell viability and purity before selecting the final donors, which are a person (refer thereafter as Donor 1), a person (refer thereafter as Donor 2) and a person (refer thereafter as Donor 3). Human primary myoblasts were seeded in 384 well plates at a density of 1′000 cells per well in skeletal muscle growth medium (SKM-M, AMSbio). For treatment, compounds were directly added to the myoblast cultures 16 hours after initial plating. All cultures were then grown for 96 hours. Cells were stained for Pax7 and MyoD expression using antibodies directed against Pax7 and MyoD and counterstained with Hoechst 33342 to visualize cell nuclei. Pax7+ cells are defined as cells that express Pax7 regardless of MyoD expression. […] Image acquisition was performed using the ImageXpress (Molecular Devices) platform. Custom module analysis based on Multi-Wavelength Cell Scoring of the MetaXpress software was used for quantification. *, **, ***, **** indicates difference from the control, One-way ANOVA, with p<0.05, p<0.01, p<0.001, p<0.0001, respectively. Data are presented as Mean+/— SEM. Human primary myoblasts from different donors (donor 1, donor 2 or donor 3) were seeded in 384 well plates at a density of 1′000 cells per well in skeletal muscle growth medium (SKM-M, AMSbio). For treatment, compounds were directly added to the myoblast cultures 16 hours after initial plating. All cultures were then grown for 96 hours. Cells were stained for Pax7 and MyoD expression using antibodies directed against Pax7 and MyoD and counterstained with Hoechst 33342 to visualize cell nuclei. Pax7+ cells are defined as cells that express Pax7 regardless of MyoD expression. […] Custom module analysis based on Multi-Wavelength Cell Scoring of the MetaXpress software was used for quantification. […]

Molecules are shown by their SMILES.

`NC(=O)c1cccnc1` [Nicotinamide]: the “proportion of MyoD+ cells, fold change compared to the control condition” value was “increasing the proportion of both amplifying (Pax7+) and differentiating (MyoD+) cells in a dose dependent manner”. For the same compound, the “proportion of Pax7+ cells, fold change compared to the control condition” value (FIG. 1A/2A) was “increasing the proportion of both amplifying (Pax7+) and differentiating (MyoD+) cells in a dose dependent manner”.
As to `Cc1ncc(CO)c(CO)c1O` [Pyridoxine], the “proportion of MyoD+ cells, fold change compared to the control condition” value is “increasing the proportion of differentiating (MyoD+) cells in a dose dependent manner”.
